# Results: ChEMBL document CHEMBL4831556, “Discovery of a Novel Potent and Selective Calcium Release-Activated Calcium Channel Inhibitor: 2,6-Difluoro-N-(2'-methyl-3'-(4-methyl-5-oxo-4,5-dihydro-1,3,4-oxadiazol-2-yl)-[1,1'-biphenyl]-4-yl)benzamide. Structure-Activity Relationship and Preclinical Characterization” (J Med Chem, 2021)
# “And” between values parts separate entries of the source, which are not always exact repeats. Equal entries are not always repeated.
# Columns and labels:
# [1] = Tmax in BALB/c mouse model of mBSA-induced delayed type hypersensitivity at 1 mg/kg, po administered twice daily for 7 days followed by mBSA challenge and measured after 24 hrs; assay type: ADME, organism-based; settings: in vivo, time 8 day
# [2] = Trough concentration in human whole blood at 80 mg, bid; assay type: ADME, tissue-based; settings: read-out: Cmin
# ORAI1/STIM1 = ORAI1/STIM1 (Homo sapiens, UniProt Q13586+Q96D31); assay: Inhibition of Orai1/STIM1 (unknown origin) expressed in HEK293 cells assessed as reduction in Ca2+-release activated Ca2+ entry current by manual patch clamp based electrophysiological method; assay type: cell-based
# ORAI1/STIM1, sequence (Q96D31 whole entry): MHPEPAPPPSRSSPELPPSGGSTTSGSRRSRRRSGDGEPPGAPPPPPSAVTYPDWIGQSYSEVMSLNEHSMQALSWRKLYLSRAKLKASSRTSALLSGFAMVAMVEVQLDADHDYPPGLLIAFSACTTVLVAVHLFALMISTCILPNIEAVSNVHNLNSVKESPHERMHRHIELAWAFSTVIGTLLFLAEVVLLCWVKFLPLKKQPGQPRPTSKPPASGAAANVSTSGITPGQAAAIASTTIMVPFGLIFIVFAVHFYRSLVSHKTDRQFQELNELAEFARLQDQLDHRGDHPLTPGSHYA
# ORAI1/STIM1, sequence (Q13586 whole entry): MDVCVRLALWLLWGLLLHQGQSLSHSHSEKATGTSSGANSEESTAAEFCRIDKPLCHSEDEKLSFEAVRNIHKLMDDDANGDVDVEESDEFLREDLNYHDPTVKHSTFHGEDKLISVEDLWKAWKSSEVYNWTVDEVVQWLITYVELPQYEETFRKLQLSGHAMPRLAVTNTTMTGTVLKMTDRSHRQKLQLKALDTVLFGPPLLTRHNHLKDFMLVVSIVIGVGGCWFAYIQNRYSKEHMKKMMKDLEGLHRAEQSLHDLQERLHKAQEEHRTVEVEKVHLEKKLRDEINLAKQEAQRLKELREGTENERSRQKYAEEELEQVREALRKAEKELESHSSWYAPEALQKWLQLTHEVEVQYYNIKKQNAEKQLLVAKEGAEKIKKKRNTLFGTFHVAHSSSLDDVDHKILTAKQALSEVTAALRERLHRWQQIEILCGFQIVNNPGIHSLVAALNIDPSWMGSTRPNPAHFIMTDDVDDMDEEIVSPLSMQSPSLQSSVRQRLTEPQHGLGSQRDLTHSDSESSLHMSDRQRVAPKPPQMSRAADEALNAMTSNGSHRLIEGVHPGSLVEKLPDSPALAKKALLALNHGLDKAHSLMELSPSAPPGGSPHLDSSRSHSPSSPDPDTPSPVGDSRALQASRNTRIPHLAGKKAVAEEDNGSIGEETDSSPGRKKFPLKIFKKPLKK
# [3] = Cmax in rat at 1 mg/kg/day; assay type: ADME, organism-based; parameters: dose 1 mg/kg/day; settings: in vivo
# [4] = Cmax in CFA-induced rheumatoid arthritis Lewis rat model at 3 mg/kg, po administered once daily for 15 days; assay type: ADME, organism-based; parameters: route oral, time 15 day, dose 3 mg/kg; settings: in vivo
# [5] = Trough concentration in human whole blood at 80 mg, qd; assay type: ADME, tissue-based; settings: read-out: Cmin
# [6] = AUClast in CFA-induced rheumatoid arthritis Lewis rat model at 1 mg/kg, po administered once daily for 15 days; assay type: ADME, organism-based; parameters: route oral, dose 1 mg/kg, time 15 day; settings: in vivo
# [7] = Cmax in human whole blood at 160 mg, qd; assay type: ADME, tissue-based; parameters: dose 160 mg
# [8] = Tmax in CFA-induced rheumatoid arthritis Lewis rat model at 3 mg/kg, po administered once daily for 15 days; assay type: ADME, organism-based; settings: in vivo, time 15 day
# [9] = Toxicity in human assessed as minimum effective dose
# [10] = Tmax in collagen-induced rheumatoid arthritis DBA/1J mouse model at 3 mg/kg, po administered twice daily for 15 days; assay type: ADME, organism-based; settings: in vivo, time 15 day
# [11] = AUC(0 to t) in human at […] measured on day 14; assay type: ADME, organism-based; parameters: time 14 day; settings: in vivo
# [12] = Cmax in CFA-induced rheumatoid arthritis Lewis rat model at 1 mg/kg, po administered once daily for 15 days; assay type: ADME, organism-based; parameters: route oral, dose 1 mg/kg, time 15 day; settings: in vivo
# [13] = Trough concentration in human whole blood at 160 mg, qd; assay type: ADME, tissue-based; settings: read-out: Cmin
compound,measurement,setting,value
Cc1c(-c2ccc(NC(=O)c3c(F)cccc3F)cc2)cccc1-c1nn(C)c(=O)o1,Tmax,[1],2 h
same,concentration,[2],667 nM
same,IC50,ORAI1/STIM1,76 nM
same,Cmax,[3],2 µM and 843 ng/mL
same,Cmax,[4],4500 nM
same,concentration,[5],185 nM
same,AUC(0-t) at 360 h,[6],36 µM·h
same,Cmax,[7],1760 nM
same,Tmax,[8],4 h
same,MED,[9],80 mg/kg
same,Tmax,[10],1 h
same,AUC(0-t) at 336 h,[11],7050 ng·h/mL
same,Cmax,[12],2000 nM
same,concentration,[13],403 nM
